Experimental findings from PubChem BioAssay (NCI) are described below.

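Following 48 hours of exposure in 96-well plates, responses at five concentrations were used to interpolate endpoints linearly. TGI marks complete inhibition of growth.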

Some test systems named below: 786-0 renal; CAKI-1 renal; CCRF-CEM leukemia; COLO 205 colon; NCI-H460 lung; RXF 393 renal; SF-295 CNS; U251 CNS.
What all share (test): NCI-60 cell line screen, 48 h

As for `C=C[C@]1(C)CCC2=C(CCC3C2(C)CCC[C@@]3(C)COC(C)=O)C1` (some centres undefined), the TGI with 786-0 renal came out at 31.8 µM; in the assay on CAKI-1 renal, 37.6 µM; with CCRF-CEM leukemia it was 35.4 µM; in the assay on COLO 205 colon it was 30 µM; in the assay on NCI-H460 lung it was 32.2 µM; in the assay with RXF 393 renal, 37.8 µM. For the same compound, the TGI in the assay on SF-295 CNS is 32.5 µM; in the assay on U251 CNS it was 31.7 µM.
Regarding `O=C1CCSC2=C1SCc1sccc12`, the TGI with 786-0 renal, in the assay on CAKI-1 renal, in the assay on CCRF-CEM leukemia, in the assay with COLO 205 colon, in the assay with NCI-H460 lung and with RXF 393 renal was more than 100 µM throughout. This compound showed a TGI in the assay with SF-295 CNS of more than 100 µM.
Regarding `CCNC(=O)O/N=C1\CCC2[C@@H]3CC=C4C[C@@H](OC5CCCCO5)CC[C@]4(C)C3CC[C@]12C` (some centres undefined), the TGI in the assay with 786-0 renal was 6.48 µM; with CAKI-1 renal, 6.19 µM; in the assay with NCI-H460 lung, 6.21 µM; with RXF 393 renal it was 5.64 µM; with SF-295 CNS it was 7.11 µM; with U251 CNS it was 4.29 µM.
For the compound `CC(C)NC(=O)CCN(C(=O)O)S(=O)(=O)c1ccc(NC(=O)c2ccccc2)cc1`, the TGI in the assay on 786-0 renal is more than 100 µM; in the assay on CAKI-1 renal, more than 100 µM; with CCRF-CEM leukemia, more than 63.4 µM; with COLO 205 colon it was more than 58.5 µM; with NCI-H460 lung, more than 59.7 µM; with RXF 393 renal, more than 100 µM. Moreover, the TGI was more than 100 µM in the assay with SF-295 CNS and 32.1 µM in the assay with U251 CNS.
For `Cc1ccccc1-n1c2nc(=O)n(C)c(=O)c-2nc2ccccc21`, the TGI with 786-0 renal came out at 58 µM; in the assay with CAKI-1 renal, 48.9 µM; with CCRF-CEM leukemia, 40.4 µM; in the assay on COLO 205 colon, 13.9 µM; with NCI-H460 lung, 27.3 µM; with RXF 393 renal it was 39.2 µM. In addition, the values for the TGI with SF-295 CNS and with U251 CNS were 27.5 µM and 33.2 µM, respectively.
As for `Cc1ccc(NC(=O)/C(Cl)=C(/Cl)C(=O)O)cc1`, the TGI was 32.6 µM in the assay on 786-0 renal; 31.1 µM in the assay on CAKI-1 renal; 5.75 µM in the assay on CCRF-CEM leukemia; 20.3 µM in the assay on COLO 205 colon; more than 100 µM with NCI-H460 lung; 45.8 µM in the assay with RXF 393 renal. Further, the TGI in the assay on SF-295 CNS was 96.8 µM; in the assay on U251 CNS it was 30.9 µM.
Consider `CC1(c2ccccc2)CC(c2cccc([N+](=O)[O-])c2)=NO1` (centres undefined), for which the TGI in the assay with 786-0 renal, in the assay on COLO 205 colon, in the assay with NCI-H460 lung, with SF-295 CNS and with U251 CNS was more than 100 µM in each case.
Consider `CC#CC1C2CCCC1(CSc1ccccc1)NC(=O)O2` (centres undefined), for which the TGI with 786-0 renal, in the assay on CAKI-1 renal, with COLO 205 colon, with NCI-H460 lung, with RXF 393 renal and with SF-295 CNS was more than 100 µM throughout. Further, the TGI with U251 CNS was more than 100 µM.
In the case of `COc1ccccc1NC(=O)c1nc2ccc([N+](=O)[O-])cc2nc1C`, the TGI with 786-0 renal, with CAKI-1 renal, in the assay with CCRF-CEM leukemia, in the assay on COLO 205 colon, in the assay on NCI-H460 lung and in the assay with U251 CNS was more than 100 µM each time.
With `O=C(/C(=C\c1ccc(Cl)cc1)c1ccccc1)c1ccccc1`, the TGI in the assay on 786-0 renal, in the assay with CCRF-CEM leukemia, with COLO 205 colon, with NCI-H460 lung, with SF-295 CNS and in the assay on U251 CNS was more than 100 µM throughout.
Take `CC1=CC(N2C(=O)C(C)=CC2O)NC1=O` (centres undefined): the TGI in the assay on 786-0 renal, in the assay with CAKI-1 renal, in the assay on COLO 205 colon, with NCI-H460 lung, in the assay with RXF 393 renal and in the assay with SF-295 CNS was more than 100 µM in each case. The TGI in the assay on U251 CNS was more than 100 µM.
Consider `CC(=O)NC1C(OCc2ccccc2)OC(COC(=O)CCCCCCCCCCNc2ccc([N+](=O)[O-])c3[nH]c4ccccc4c(=O)c23)C(O)C1OC(C)C(=O)NC(C)C(=O)NC(CCC(N)=O)C(=O)OCc1ccccc1` (centres undefined), for which the TGI in the assay with 786-0 renal, in the assay with CAKI-1 renal, with COLO 205 colon, in the assay with NCI-H460 lung, in the assay on SF-295 CNS and with U251 CNS was more than 100 µM in each case.
With `COC(=O)C1=C(C(=O)OC)C2(C)Nc3ccccc3C2=C(c2ccccc2)C1` (centres undefined), the TGI in the assay on 786-0 renal was found to be 81.4 µM; in the assay on CCRF-CEM leukemia, 47.4 µM; with COLO 205 colon, 34 µM; with NCI-H460 lung it was 42.9 µM; in the assay on RXF 393 renal, 54.3 µM; with SF-295 CNS, 58 µM. The same compound gave a TGI with U251 CNS of 41.6 µM.
